One assay concerns the target FLT3 (Homo sapiens (Human), UniProt P36888). The experiment in a line: Kinase selectivity assay (CEREP HTRF panel). It counts as biochemical. (In general: Time-resolved FRET reads energy transfer from a long-lived donor to a nearby acceptor.)
A further assay concerns the target KDR kinase (VEGFR2) (Homo sapiens (Human), UniProt P35968). Put plainly: Kinase selectivity assay (CEREP HTRF panel). It counts as biochemical.
Another assay has as its target Aurora A (Homo sapiens (Human), UniProt O14965). Put plainly: Aurora A inhibition assay (Z-Lyte). It counts as biochemical.
Another assay deals with HUV-EC-C cells. Put plainly: In vitro angiogenesis assay (tube formation). It counts as cell-based. Conditions: 4 hr. The protocol: Activity against these RTKs can result in antiangiogenic activity which is associated with slowed tumor growth and/or tumor regression. To measure the antiangiogenic effects of compounds of the invention, selected examples were tested in an angiogenesis assay as described below.
HUV-EC-C cells were obtained from the American Type Culture Collection (ATCC, CRL-1730), and were used at early passage for the assay. The in vitro Angiogenesis Assay Kit (Chemicon) was used according to the manufacturer's recommendation. An ice-cold mixture of ECMatrix was transferred into a precooled 96-well plate. After the matrix solution had solidified (>1 hr incubation at 37° C.), 8,000 cells were mixed with the appropriate inhibitor concentration (in 100 microliters EGM-2) and plated into each well. The clinical antiangiogenic, Sutent was used as a positive control in comparison to a compound of the invention, A13. After incubation at 37° C. for 4 hr, tube formation was inspected. Two methods, pattern recognition and branch point counting, were used to quantify the progression of angiogenesis and expressed as a percentage of the control tube count (FIGS. 1 and 2).

The subject of another assay is AMPKalpha. The experiment in a line: Kinase selectivity assay (CEREP HTRF panel). In kind it is biochemical, human.
In another assay the target is CSK (Homo sapiens (Human), UniProt P41240). The experiment in a line: Kinase selectivity assay (CEREP HTRF panel). In kind it is biochemical.
A further assay has as its target IGF1R kinase (Homo sapiens (Human), UniProt P08069). The experiment in a line: Kinase selectivity assay (CEREP HTRF panel). It counts as biochemical.
In a further assay the target is PKCalpha (Homo sapiens (Human), UniProt P17252). The experiment in a line: Kinase selectivity assay (CEREP HTRF panel). In kind it is biochemical.
In another assay the target is Akt1/PKBalpha (Homo sapiens (Human), UniProt P31749). Put plainly: Kinase selectivity assay (CEREP HTRF panel). It counts as biochemical.
The target of the next assay is IRK (InsR) (Homo sapiens (Human), UniProt P06213). The experiment in a line: Kinase selectivity assay (CEREP HTRF panel). In kind it is biochemical.
Another assay concerns the target PKA (Homo sapiens (Human), UniProt P17612). The experiment in a line: Kinase selectivity assay (CEREP HTRF panel). It counts as biochemical.
A further assay has as its target CHK2 (Homo sapiens (Human), UniProt O96017). The experiment in a line: Kinase selectivity assay (CEREP HTRF panel). In kind it is biochemical.
Another assay deals with c-Met kinase (Homo sapiens (Human), UniProt P08581). Put plainly: Kinase selectivity assay (CEREP HTRF panel). In kind it is biochemical.
Another assay addresses MEK1/MAP2K1 (Homo sapiens (Human), UniProt Q02750). Put plainly: Kinase selectivity assay (CEREP HTRF panel). In kind it is biochemical.
Another assay concerns the target PDGFRbeta kinase (Homo sapiens (Human), UniProt P09619). Put plainly: Kinase selectivity assay (CEREP HTRF panel). It counts as biochemical.
The target of the next assay is Src kinase (Homo sapiens (Human), UniProt P12931). Put plainly: Kinase selectivity assay (CEREP HTRF panel). In kind it is biochemical.
In a further assay the target is MAPKAPK2 (Homo sapiens (Human), UniProt P49137). The experiment in a line: Kinase selectivity assay (CEREP HTRF panel). In kind it is biochemical.
The next assay addresses Fyn kinase (Homo sapiens (Human), UniProt P06241). Put plainly: Kinase selectivity assay (CEREP HTRF panel). It counts as biochemical.
The target in the next assay is ERK1 (Homo sapiens (Human), UniProt P27361). Put plainly: Kinase selectivity assay (CEREP HTRF panel). In kind it is biochemical.
For another assay, the target named is CDC2/CDK1 (cycB) (Homo sapiens (Human), UniProt P06493). Put plainly: Kinase selectivity assay (CEREP HTRF panel). In kind it is biochemical.
A further assay deals with TRKA (Homo sapiens (Human), UniProt P04629). The experiment in a line: Kinase selectivity assay (CEREP HTRF panel). In kind it is biochemical.
A further assay deals with CHK1 (Homo sapiens (Human), UniProt O14757). Put plainly: Kinase selectivity assay (CEREP HTRF panel). In kind it is biochemical.
For another assay, the target named is BMX kinase (Etk) (Homo sapiens (Human), UniProt P51813). The experiment in a line: Kinase selectivity assay (CEREP HTRF panel). In kind it is biochemical.
The target of the next assay is PKCbeta 1 (Homo sapiens (Human), UniProt P05771). Put plainly: Kinase selectivity assay (CEREP HTRF panel). In kind it is biochemical.
A further assay has as its target PLK2 (Homo sapiens (Human), UniProt Q9NYY3). The experiment in a line: PLK2 inhibition assay (Z-Lyte). In kind it is biochemical. Here is the method:
PLK2 inhibition was determined using the Z-Lyte assay kit from Invitrogen (cat #PV3802). The assay was performed using the recommended manufacturer's instructions with 60 μM ATP and 133 nM PLK2 (Invitrogen cat #PV4204). The % inhibition values were determined according to the manufacturer's directions and IC50 values were obtained using a non-linear 4 point logistic curve fit (XLfit4, IDBS)

For the next assay, the target named is Lyn kinase (Homo sapiens (Human), UniProt P07948). Put plainly: Kinase selectivity assay (CEREP HTRF panel). It counts as biochemical.
A further assay deals with Brk (Homo sapiens (Human), UniProt Q13882). Put plainly: Kinase selectivity assay (CEREP HTRF panel). It counts as biochemical.
For another assay, the target named is Abl (Homo sapiens (Human), UniProt P00519). The experiment in a line: Kinase selectivity assay (CEREP HTRF panel). In kind it is biochemical.
The next assay has as its target PKCbeta 2 (Homo sapiens (Human), UniProt P05771). The experiment in a line: Kinase selectivity assay (CEREP HTRF panel). It counts as biochemical.
In another assay the target is ERK2 (P42mapk) (Homo sapiens (Human), UniProt P28482). Put plainly: Kinase selectivity assay (CEREP HTRF panel). It counts as biochemical. Conditions: read-out: % Inhibition @ 10 uM, ERK (P42mapk).
For a further assay, the target named is p38gamma kinase (Homo sapiens (Human), UniProt P53778). The experiment in a line: Kinase selectivity assay (CEREP HTRF panel). In kind it is biochemical.
The next assay addresses PDK1 (Homo sapiens (Human), UniProt O15530). Put plainly: Kinase selectivity assay (CEREP HTRF panel). It counts as biochemical.
A further assay concerns the target JNK 2 (Homo sapiens (Human), UniProt P45984). The experiment in a line: Kinase selectivity assay (CEREP HTRF panel). It counts as biochemical.
Another assay concerns the target CaMK4 (Homo sapiens (Human), UniProt Q16566). Put plainly: Kinase selectivity assay (CEREP HTRF panel). It counts as biochemical.
The target of another assay is PLK3 (Homo sapiens (Human), UniProt Q9H4B4). Put plainly: PLK3 inhibition assay (Z-Lyte). In kind it is biochemical. Here is the method: PLK3 inhibition was determined using the Z-Lyte assay kit from Invitrogen (cat #PV3802). The assay was performed using the recommended manufacturer's instructions with 100 μM ATP and 21 nM PLK3 (Invitrogen cat #PV3812). The % inhibition values were determined according to the manufacturer's directions and IC50 values were obtained using a non-linear 4 point logistic curve fit (XLfit4, IDBS).

Another assay has as its target RSK2 (Homo sapiens (Human), UniProt P51812). Put plainly: Kinase selectivity assay (CEREP HTRF panel). In kind it is biochemical.
The target in the next assay is Ret kinase (Homo sapiens (Human), UniProt P07949). The experiment in a line: Kinase selectivity assay (CEREP HTRF panel). It counts as biochemical.
The target of another assay is p38alpha kinase (Homo sapiens (Human), UniProt Q16539). The experiment in a line: Kinase selectivity assay (CEREP HTRF panel). It counts as biochemical.
The target of a further assay is Lck (Homo sapiens (Human), UniProt P06239). Put plainly: Kinase selectivity assay (CEREP HTRF panel). In kind it is biochemical.
In the next assay the target is p38delta kinase (Homo sapiens (Human), UniProt O15264). The experiment in a line: Kinase selectivity assay (CEREP HTRF panel). In kind it is biochemical.
The target in another assay is FGFR4 kinase (Homo sapiens (Human), UniProt P22455). The experiment in a line: Kinase selectivity assay (CEREP HTRF panel). In kind it is biochemical.
Another assay addresses ROCK2 (Homo sapiens (Human), UniProt O75116). The experiment in a line: Kinase selectivity assay (CEREP HTRF panel). In kind it is biochemical.
The target in another assay is PKCgamma (Homo sapiens (Human), UniProt P05129). Put plainly: Kinase selectivity assay (CEREP HTRF panel). In kind it is biochemical.
The next assay deals with EphB4 kinase (Homo sapiens (Human), UniProt P54760). Put plainly: Kinase selectivity assay (CEREP HTRF panel). It counts as biochemical.
Another assay has as its target PLK1 (Homo sapiens (Human), UniProt P53350). The experiment in a line: PLK1 inhibition assay (Z-Lyte). In kind it is biochemical.

These results are taken from patent publication US10358436B2, “Kinase inhibitors and method of treating cancer” (University Health Network, priority 2010, dated 2019).

Chain of FLT3 (P36888 27-993): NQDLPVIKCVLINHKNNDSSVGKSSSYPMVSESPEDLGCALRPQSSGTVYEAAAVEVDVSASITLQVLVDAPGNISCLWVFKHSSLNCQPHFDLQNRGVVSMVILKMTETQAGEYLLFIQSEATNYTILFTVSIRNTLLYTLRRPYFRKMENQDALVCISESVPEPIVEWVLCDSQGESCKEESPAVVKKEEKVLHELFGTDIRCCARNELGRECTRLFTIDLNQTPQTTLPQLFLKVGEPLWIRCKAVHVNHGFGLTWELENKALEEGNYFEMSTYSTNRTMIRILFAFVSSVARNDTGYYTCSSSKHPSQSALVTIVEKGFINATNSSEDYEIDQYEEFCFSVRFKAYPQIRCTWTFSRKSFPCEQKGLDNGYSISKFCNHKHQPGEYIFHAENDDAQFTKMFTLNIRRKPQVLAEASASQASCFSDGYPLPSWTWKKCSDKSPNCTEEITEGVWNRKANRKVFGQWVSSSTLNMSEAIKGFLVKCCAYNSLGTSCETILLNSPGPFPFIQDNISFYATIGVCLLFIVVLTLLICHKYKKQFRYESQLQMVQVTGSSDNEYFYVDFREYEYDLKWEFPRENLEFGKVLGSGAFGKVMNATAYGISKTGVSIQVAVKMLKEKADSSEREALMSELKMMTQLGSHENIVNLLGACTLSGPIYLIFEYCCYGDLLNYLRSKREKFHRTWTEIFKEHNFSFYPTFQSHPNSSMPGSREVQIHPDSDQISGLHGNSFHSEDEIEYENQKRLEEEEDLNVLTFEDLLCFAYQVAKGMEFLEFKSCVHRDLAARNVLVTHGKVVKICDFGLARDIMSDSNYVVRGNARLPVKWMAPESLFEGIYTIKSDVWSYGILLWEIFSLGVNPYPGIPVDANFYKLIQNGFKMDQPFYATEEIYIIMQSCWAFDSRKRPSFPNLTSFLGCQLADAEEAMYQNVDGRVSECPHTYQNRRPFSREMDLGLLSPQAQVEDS
Chain of KDR kinase (VEGFR2) (P35968 20-1356): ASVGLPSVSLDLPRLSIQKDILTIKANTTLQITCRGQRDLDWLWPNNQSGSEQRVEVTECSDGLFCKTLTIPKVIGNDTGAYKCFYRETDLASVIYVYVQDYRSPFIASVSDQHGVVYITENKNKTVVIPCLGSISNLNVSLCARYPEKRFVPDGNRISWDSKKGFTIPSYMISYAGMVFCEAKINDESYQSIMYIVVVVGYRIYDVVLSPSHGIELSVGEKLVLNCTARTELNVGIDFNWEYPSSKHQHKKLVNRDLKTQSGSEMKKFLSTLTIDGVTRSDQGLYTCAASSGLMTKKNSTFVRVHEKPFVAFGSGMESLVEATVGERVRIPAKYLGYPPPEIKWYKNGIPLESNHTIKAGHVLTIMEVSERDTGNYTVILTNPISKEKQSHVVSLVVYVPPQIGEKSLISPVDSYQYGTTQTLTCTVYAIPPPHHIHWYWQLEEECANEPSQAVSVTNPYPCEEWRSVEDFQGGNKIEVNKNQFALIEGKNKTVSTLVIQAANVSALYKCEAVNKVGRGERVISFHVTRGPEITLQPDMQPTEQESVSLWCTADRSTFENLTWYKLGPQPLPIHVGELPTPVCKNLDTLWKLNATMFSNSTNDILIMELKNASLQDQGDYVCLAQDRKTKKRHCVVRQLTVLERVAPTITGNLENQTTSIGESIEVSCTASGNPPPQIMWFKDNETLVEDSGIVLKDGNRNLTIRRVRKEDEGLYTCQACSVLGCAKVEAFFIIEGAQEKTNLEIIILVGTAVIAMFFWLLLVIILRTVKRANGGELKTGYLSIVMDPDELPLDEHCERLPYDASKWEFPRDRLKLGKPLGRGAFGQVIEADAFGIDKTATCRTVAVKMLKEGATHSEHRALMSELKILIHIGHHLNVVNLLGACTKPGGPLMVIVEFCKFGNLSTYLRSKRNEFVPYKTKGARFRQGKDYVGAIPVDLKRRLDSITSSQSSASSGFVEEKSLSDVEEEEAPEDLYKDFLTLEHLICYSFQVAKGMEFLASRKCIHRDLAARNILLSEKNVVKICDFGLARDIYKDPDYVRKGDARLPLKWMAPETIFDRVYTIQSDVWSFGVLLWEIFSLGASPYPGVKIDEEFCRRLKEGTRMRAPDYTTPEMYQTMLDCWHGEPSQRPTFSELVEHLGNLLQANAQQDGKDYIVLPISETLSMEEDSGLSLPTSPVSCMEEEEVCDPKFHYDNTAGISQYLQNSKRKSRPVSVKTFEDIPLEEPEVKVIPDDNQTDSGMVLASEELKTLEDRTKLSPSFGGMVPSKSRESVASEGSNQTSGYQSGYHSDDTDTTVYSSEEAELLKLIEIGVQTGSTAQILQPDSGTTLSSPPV
Chain of Aurora A (O14965 whole entry): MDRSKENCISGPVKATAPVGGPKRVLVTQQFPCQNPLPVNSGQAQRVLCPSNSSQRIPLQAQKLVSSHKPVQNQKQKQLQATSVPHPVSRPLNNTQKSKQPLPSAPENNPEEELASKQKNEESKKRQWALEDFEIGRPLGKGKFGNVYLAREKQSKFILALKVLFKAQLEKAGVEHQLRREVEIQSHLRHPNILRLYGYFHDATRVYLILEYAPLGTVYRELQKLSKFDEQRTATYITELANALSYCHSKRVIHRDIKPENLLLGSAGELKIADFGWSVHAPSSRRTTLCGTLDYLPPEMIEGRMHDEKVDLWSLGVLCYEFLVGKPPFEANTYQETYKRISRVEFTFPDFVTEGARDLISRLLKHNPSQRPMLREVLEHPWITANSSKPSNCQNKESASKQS
Chain of PDK1 (O15530 whole entry): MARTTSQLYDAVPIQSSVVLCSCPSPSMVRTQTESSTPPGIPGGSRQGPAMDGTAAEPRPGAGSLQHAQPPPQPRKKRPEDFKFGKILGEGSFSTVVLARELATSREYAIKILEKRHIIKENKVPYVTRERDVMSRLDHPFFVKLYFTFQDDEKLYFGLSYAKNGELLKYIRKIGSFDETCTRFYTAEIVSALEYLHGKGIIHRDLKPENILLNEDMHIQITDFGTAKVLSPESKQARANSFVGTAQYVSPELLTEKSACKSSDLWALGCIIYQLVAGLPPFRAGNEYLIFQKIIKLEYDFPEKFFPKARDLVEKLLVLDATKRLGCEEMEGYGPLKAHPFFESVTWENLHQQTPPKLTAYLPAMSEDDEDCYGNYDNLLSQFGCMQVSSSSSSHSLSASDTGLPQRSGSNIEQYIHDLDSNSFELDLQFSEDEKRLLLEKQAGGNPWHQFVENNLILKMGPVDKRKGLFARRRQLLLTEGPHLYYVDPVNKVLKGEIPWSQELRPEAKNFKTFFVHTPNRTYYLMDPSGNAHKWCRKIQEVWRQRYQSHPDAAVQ
Chain of BMX kinase (Etk) (P51813 whole entry): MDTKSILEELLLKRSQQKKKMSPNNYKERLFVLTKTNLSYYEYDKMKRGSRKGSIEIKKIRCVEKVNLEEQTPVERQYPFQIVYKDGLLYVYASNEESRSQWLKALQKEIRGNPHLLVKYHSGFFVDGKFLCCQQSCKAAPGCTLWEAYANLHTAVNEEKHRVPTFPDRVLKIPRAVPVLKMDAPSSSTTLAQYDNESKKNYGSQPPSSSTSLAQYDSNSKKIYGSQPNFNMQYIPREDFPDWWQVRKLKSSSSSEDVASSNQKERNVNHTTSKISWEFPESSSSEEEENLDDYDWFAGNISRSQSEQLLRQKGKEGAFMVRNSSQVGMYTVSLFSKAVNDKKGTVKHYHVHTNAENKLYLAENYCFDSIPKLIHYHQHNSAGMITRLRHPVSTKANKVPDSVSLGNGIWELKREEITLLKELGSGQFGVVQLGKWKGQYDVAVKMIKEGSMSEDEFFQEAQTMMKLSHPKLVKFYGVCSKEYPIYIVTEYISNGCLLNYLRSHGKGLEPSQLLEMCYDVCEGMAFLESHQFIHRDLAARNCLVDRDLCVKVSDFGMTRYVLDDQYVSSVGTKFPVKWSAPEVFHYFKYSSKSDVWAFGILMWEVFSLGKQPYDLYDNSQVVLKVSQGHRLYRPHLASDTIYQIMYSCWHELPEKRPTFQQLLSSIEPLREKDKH
Chain of ERK1 (P27361 whole entry): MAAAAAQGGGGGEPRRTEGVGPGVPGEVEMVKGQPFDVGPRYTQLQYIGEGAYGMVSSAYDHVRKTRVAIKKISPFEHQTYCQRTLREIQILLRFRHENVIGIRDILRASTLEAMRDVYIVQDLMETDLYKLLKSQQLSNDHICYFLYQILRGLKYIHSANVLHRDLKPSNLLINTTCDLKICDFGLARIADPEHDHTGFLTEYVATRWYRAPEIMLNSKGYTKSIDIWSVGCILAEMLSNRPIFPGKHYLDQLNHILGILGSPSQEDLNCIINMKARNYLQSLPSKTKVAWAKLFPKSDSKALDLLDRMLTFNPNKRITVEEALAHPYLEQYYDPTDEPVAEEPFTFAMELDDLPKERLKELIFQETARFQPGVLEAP
Protocol for FLT3: (§1) The assays were performed using standard HTRF assay methods as documented by CEREP against the human orthologues of Ab1 kinase, Akt1/PKBa, AMPKa, BMX kinase (Etk), Brk, CaMK2a, CaMK4, CDC2/CDK1 (cycB), CHK1, CHK2, c-Met kinase, CSK, EphB4 kinase, ERK1, ERK2 (P42mapk), FGFR2 kinase, FGFR4 kinase, FLT-1 kinase (VEGFR1), FLT-3 kinase, Fyn kinase, IGF1R kinase, IRK (InsR), JNK 2, KDR kinase (VEGFR2), Lck kinase, Lyn kinase, MAPKAPK2, MEK1/MAP2K1, p38a kinase, p38d kinase, p38 g kinase, PDGFRb kinase, PDK1, PKA, PKCa, PKCb1, PKCb2, PKCg, Ret kinase, ROCK2, RSK2, Src kinase, Syk, and TRKA (Table 3).
Protocol for KDR kinase (VEGFR2): as §1
Protocol for PLK1: PLK1 inhibition was determined using the Z-Lyte assay kit from Invitrogen (cat #PV3802). The assay was performed using the recommended manufacturer's instructions with 25 μM ATP and 8 nM PLK1 (Invitrogen cat #PV3501). The % inhibition values were determined according to the manufacturer's directions and IC50 values were obtained using a non-linear 4 point logistic curve fit (XLfit4, IDBS)

For the compound `COc1ccc2c(c1)[C@]1(C[C@H]1c1ccc3c(-c4ccc(N5CCN(C)CC5)nc4)n[nH]c3c1)C(=O)N2` (relative stereo) [Example A13, (1R*,2S*)-5′-Methoxy-2-(3-(6-(4-methylpiperazin-1-yl)pyridin-3-yl)-1H-indazol-6-yl)spiro[cyclopropane-1,3′-indolin]-2′-one], the inhibition (as a rule, the drop in the measured response relative to a control, in per cent) at 10 µM against FLT3 amounted to 86%; on KDR kinase (VEGFR2) it was 6%. Further, the inhibition at 1 µM against Aurora A was below 50%. In addition, in the assay on HUV-EC-C cells, the “anti-angiogenic effect (tube formation)” value is “anti-agiogenic effects at submicromolar concentrations”. The “% Inhibition @ 10 uM, AMPKalpha” value in the assay with AMPKalpha was found to be 8%.
As to `O=C1Nc2ccccc2[C@]12C[C@H]2c1ccc2c(/C=C/c3ccncc3)n[nH]c2c1` (relative stereo) [Example A22, 1R*,2S*)-(E)-2-(3-(2-(pyridin-4-yl)vinyl)-1H-indazol-6-yl)spiro-[cyclo-propane-1,3′-indolin]-2′-one], the inhibition at 10 µM was 99% against CSK; 22% against IGF1R kinase; 7% against PKCalpha; -1% against Akt1/PKBalpha; 21% on IRK (InsR); -6% against PKA. Further, the inhibition at 10 µM on CHK2 came out at 4%; at c-Met kinase, 97%; on MEK1/MAP2K1, 12%; on PDGFRbeta kinase it was 88%; at Src kinase it was 26%; against MAPKAPK2 it was 4%. Moreover, the inhibition at 10 µM against FLT3 was 100%; against KDR kinase (VEGFR2) it was 98%; against Fyn kinase, 87%; against ERK1, 8%; against CDC2/CDK1 (cycB) it was 93%; against TRKA, 100%. In addition, the inhibition at 10 µM against CHK1 is 37%; against BMX kinase (Etk), 71%; at PKCbeta 1, 0%; at PLK2 it was at most 50%; against Lyn kinase, 99%; against Brk it was 41%. Moreover, the inhibition at 10 µM is 97% against Abl; 11% against PKCbeta 2; 11% on ERK2 (P42mapk); -15% at p38gamma kinase; 69% against PDK1; 32% on JNK 2. In addition, the inhibition at 10 µM at CaMK4 was -8%; on PLK3 it was at most 50%; at RSK2, 48%; against Ret kinase it was 99%; at p38alpha kinase, 32%; at Lck it was 97%. In addition, the inhibition at 10 µM against p38delta kinase was -22%; against FGFR4 kinase, 56%; at ROCK2, 88%; at PKCgamma, 8%; on EphB4 kinase it was 99%. Moreover, the “anti-angiogenic effect (tube formation)” value in the assay on HUV-EC-C cells is recorded as “anti-agiogenic effects at submicromolar concentrations”.
For `CN(C)Cc1ccc(/C=C/c2n[nH]c3cc([C@@H]4C[C@@]45C(=O)Nc4ccccc45)ccc23)cc1` (relative stereo) [Example A23, (1R*,2S*)-(E)-2-(3-(4-((dimethylamino)methyl)styryl)-1H-indazol-6-yl)spiro[cyclopropane-1,3′-indolin]-2′-one 2,2,2-trifluoroacetate], the inhibition at 10 µM at PLK2, against PLK3 and on PLK1 was at most 50% each time. Also, the “anti-angiogenic effect (tube formation)” value in the assay on HUV-EC-C cells is “anti-agiogenic effects at submicromolar concentrations”.
